This passage reports EC50 results from patent publication US20080280933A1, “BENZIMIDAZOLYL COMPOUNDS” (priority 2006, published 2008).

As usually defined, the EC50 is the concentration giving half of the maximal effect.

The target of the first experiment is T1, mGluR2 receptor (metabotropic glutamate receptor 2) (Homo sapiens, UniProt Q14416).
T1 construct: expressed in transfected cells
T1 sequence (Q14416 19-872, species assumed): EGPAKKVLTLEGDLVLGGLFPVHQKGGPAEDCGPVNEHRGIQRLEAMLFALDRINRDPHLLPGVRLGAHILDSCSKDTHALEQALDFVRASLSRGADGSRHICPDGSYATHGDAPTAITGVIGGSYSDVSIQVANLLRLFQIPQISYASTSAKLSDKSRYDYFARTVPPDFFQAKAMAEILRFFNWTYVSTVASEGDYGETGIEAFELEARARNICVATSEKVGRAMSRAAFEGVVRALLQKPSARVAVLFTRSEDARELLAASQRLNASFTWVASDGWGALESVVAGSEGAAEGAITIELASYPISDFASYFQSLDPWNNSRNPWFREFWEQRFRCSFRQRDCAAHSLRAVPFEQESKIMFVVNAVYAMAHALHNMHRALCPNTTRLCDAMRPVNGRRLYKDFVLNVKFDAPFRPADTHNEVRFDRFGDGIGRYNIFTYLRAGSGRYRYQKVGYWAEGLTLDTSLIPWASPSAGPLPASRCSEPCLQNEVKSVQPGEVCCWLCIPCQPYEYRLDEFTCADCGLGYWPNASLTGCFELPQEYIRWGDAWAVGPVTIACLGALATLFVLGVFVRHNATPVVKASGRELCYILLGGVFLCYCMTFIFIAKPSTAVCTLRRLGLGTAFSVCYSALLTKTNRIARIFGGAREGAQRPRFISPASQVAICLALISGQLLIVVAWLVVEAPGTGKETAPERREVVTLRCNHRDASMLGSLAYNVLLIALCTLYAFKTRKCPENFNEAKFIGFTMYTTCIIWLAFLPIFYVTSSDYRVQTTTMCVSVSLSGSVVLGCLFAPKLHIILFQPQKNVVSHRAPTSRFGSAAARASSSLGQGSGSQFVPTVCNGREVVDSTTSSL
Briefly: mGluR2 Potentiator Screen, FLIPR, EC10-EC20 glutamate challenge. The settings on record: mGluR2 potentiator screen, Table 7; read-out: EC50. The class given is cell-based. In outline:
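HEK cells stably co-expressing mGluR2 and Gα15, kept glutamine-free overnight, were loaded with Fluo-4 plus probenecid and GPT/pyruvate. Compounds (top 10 μM) were added ≥30 min before an EC10–EC20 glutamate challenge. Peak FLIPR fluorescence ratios were curve-fitted, excluding points above maximal effect, with maxima from on-plate standards.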
`COCCn1c(CN2CCC(c3cc(Cl)ccc3OCC(C)C)CC2)nc2ccccc21` [compound 180]: the EC50 is 3.02 µM.

For the compound `Cn1c(CN2CCC(c3ccc(C(F)(F)F)cc3)CC2)nc2ccccc21` [compound 166], the EC50 was 0.0778 µM. Take `Cn1c(CN2CCC(c3cccc(C(F)(F)F)c3)CC2)nc2ccccc21` [compound 162]: the EC50 was found to be 0.254 µM. On to `CC1CC1COc1ccc(Cl)cc1C1CCN(Cc2nc3ccccc3n2CF)CC1` (centres unmarked) [compound 197], for which the EC50 was determined as 3.26 µM. Still for that read-out and setting: then `COC(=O)[C@H]1CN(Cc2nc3ccccc3n2C)C[C@@H]1c1ccc(C(F)(F)F)cc1` [compound 153], with 4.79 µM.

For `Cn1c(CN2CCC(c3cc(Cl)ccc3OCCC3CC3)CC2)nc2ccccc21` [compound 189], the EC50 is 0.153 µM. On the same count and under the same terms, then `Clc1ccc(OCCC2CC2)c(C2CCN(Cc3nc4ccccc4n3C3CC3)CC2)c1` [compound 187], with 0.777 µM. On the same count and under the same terms, then `COc1ccccc1C1CCN(Cc2nc3c(Br)cccc3n2C)CC1` [compound 169], with 1.23 µM. Turning to `CCCCN1CC2(CCN(Cc3nc4ccccc4n3C)CC2)c2cc(C)cc(C)c21` [compound 149], the concentration for a half-maximal effect (EC50) worked out at 1.64 µM. With `Clc1ccc(OCC2CCC2)c(C2CCN(Cc3nc4ccccc4n3C3CC3)CC2)c1` [compound 192], the EC50 was 2.26 µM.

Staying with this experiment, now noted: read-out: EC50.
Consider `CCCN1CC2(CCN(Cc3nc4ccccc4n3C)CC2)c2cc(C)ccc21` [compound 144], for which the EC50 amounted to 2.37 µM. Take `COc1cc(C(F)(F)F)ccc1C1CCN(Cc2nc3cc(F)ccc3n2C)CC1` [compound 349]: the EC50 was found to be 0.0349 µM.

Turning to `FC(F)(F)c1ccccc1C1CCN(Cc2nc3ccccc3n2C2CC2)CC1` [compound 245], the EC50 was 3.35 µM. For the compound `Cn1c(CN2CCC(c3ccc(Cl)c(F)c3)CC2)nc2cccc(F)c21` [compound 453], the EC50 amounted to 0.157 µM.

As to `Cc1cc(C)c2c(c1)C1(CCN(Cc3nc4ccccc4n3C)CC1)CN2CCC(C)C` [compound 121], the EC50 worked out at 1.15 µM.

In the case of `COc1ccccc1C1CCN(Cc2nc3ccccc3n2CF)CC1` [compound 254], the EC50 stood at 0.0624 µM. `CCCCCOc1ccccc1C1CCN(Cc2nc3ccccc3n2C)CC1` [compound 93]: the concentration giving a half-maximal response (EC50) amounted to 0.324 µM. On the same count and under the same terms, the same measure for `COCCn1c(CN2CCC(c3cc(C(F)(F)F)ccc3F)CC2)nc2ccccc21` [compound 326]: 0.263 µM.

Regarding `Cn1c(CN2CCC(c3ccc(Cl)c(C(F)(F)F)c3)CC2)nc2ccccc21` [compound 446], the EC50 worked out at 0.0429 µM. Same read-out and setting: then `Cn1c(CN2CCC3(CC2)CN(C(=O)COc2ccccc2)c2ccccc23)nc2ccccc21` [compound 57], with 0.508 µM.

In the case of `Cn1c(CN2CCC(c3ccccc3F)CC2)nc2cc(C#N)ccc21` [Entry 272, 2-((4-(2-Fluorophenyl)piperidin-1-yl)methyl)-1-methyl-1H-benzo[d]imidazole-5-carbonitrile], the EC50 was determined as 0.073 µM. Consider `Cc1ccc2c(c1)C1(CCN(Cc3nc4ccccc4n3C)CC1)CN2CC1CC1` [compound 142], for which the EC50 was 3.02 µM. With `COC(=O)CCC(=O)N1CC2(CCN(Cc3nc4ccccc4n3C)CC2)c2cc(C)ccc21` [compound 34], the concentration for a half-maximal effect (EC50) is 3.15 µM. Still for that read-out and setting: then `Cn1c(CN2CCC(c3ccc(F)c(Cl)c3)CC2)nc2cccc(F)c21` [compound 444], with 0.131 µM. For the compound `Cn1c(CN2CCC(c3ccc(F)cc3F)CC2)nc2ccccc21` [compound 422], the EC50 was determined as 0.0146 µM. On the same count and under the same terms, then `Cn1c(CN2CCC(c3ccccc3F)CC2)nc2cc(Br)ccc21` [compound 269], with 0.445 µM. For the compound `COc1ccc(C(F)(F)F)cc1C1CCN(Cc2nc3c(F)cccc3n2C)CC1` [compound 397], the half-maximal effective concentration (EC50) worked out at 0.435 µM. In the case of `Cn1c(CN2CCC(c3ccc(C(F)(F)F)cc3)CC2)nc2cc(C(F)(F)F)ccc21` [compound 362], the EC50 stood at 5.01 µM.

With `Cc1nnsc1C(=O)N1CC2(CCN(Cc3nc4ccccc4n3C)CC2)c2ccccc21` [compound 28], the EC50 came out at 2.11 µM. As for `CCCCN1CC2(CCN(Cc3nc4ccccc4n3C)CC2)c2cc(F)ccc21` [compound 140], the EC50 came to 2.12 µM. For `Cc1cc(C)c2c(c1)C1(CCN(Cc3nc4ccccc4n3C)CC1)CN2CC(C)C` [compound 125], the EC50 was 3.93 µM.

In the case of `COc1cc(C(F)(F)F)ccc1C1CCN(Cc2nc3cc(F)c(F)cc3n2C)CC1` [compound 360], the EC50 came to 0.266 µM. On to `Cc1ccc2c(c1)C1(CCN(Cc3nc4ccccc4n3C)CC1)CN2` [compound 143], for which the EC50 is greater than 8.67 µM.

Consider “2-[4-(2-Methoxy-phenyl)-piperidin-1-ylmethyl]-1-methyl-1H-benzoimidazole-5-carboxylic acid [Entry 288]”, for which the EC50 was found to be 0.569 µM. Regarding `CC(C)Oc1ccccc1C1CCN(Cc2nc3cc(F)ccc3n2C)CC1` [compound 371], the EC50 is 0.692 µM.

With `Cn1c(CN2CCC(c3cc(F)cc4c3OCCC4)CC2)nc2ccccc21` [compound 431], the EC50 was 5.34 µM. As to `Cn1c(CN2CCC(c3ccccc3F)CC2)nc2ccc(C#N)cc21` [Entry 275, 2-((4-(2-Fluorophenyl)piperidin-1-yl)methyl)-3-methyl-3H-benzo[d]imidazole-5-carbonitrile], the EC50 stood at 0.211 µM.

As to `Cn1c(CN2CCC(c3ccc(C(=O)NC4CCCC4)cc3)CC2)nc2ccccc21` [compound 437], the EC50 is 5.27 µM. On to `Cn1c(CN2CCC3(CC2)CN(Cc2cccnc2)c2ccccc23)nc2ccccc21` [compound 112], for which the EC50 is greater than 9.88 µM. The same measure, in the same setting: then “2-((4-(2-Fluorophenyl)piperidin-1-yl)methyl)-1-methyl-1H-benzo[d]imidazole-5-carbonitrile [Entry 272]”, with 0.439 µM. Same read-out and setting: then `C[C@@H]1CN(Cc2nc3ccccc3n2C)CC[C@@H]1c1ccc(C(F)(F)F)cc1C(F)(F)F` (relative stereo) [compound 466], with 0.161 µM. For `Cn1c(CN2CCC(c3ccccc3OCC3CCCC3)CC2)nc2ccccc21` [compound 86], the EC50 was 2.31 µM. For `Cc1cc(Cl)ccc1[C@H]1CCN(Cc2nc3ccccc3n2C)C[C@H]1C` (relative stereo) [compound 469], the EC50 was greater than 0.351 µM.

As for `Cn1c(CN2CCC3(CC2)CN(C(=O)c2ccoc2)c2ccccc23)nc2ccccc21` [compound 50], the EC50 was 4.93 µM. On to `Cc1ccc2c(c1)C1(CCN(Cc3nc4ccccc4n3C)CC1)CN2C(=O)c1ccco1` [compound 37], for which the 50% effective concentration (EC50) came to 1.82 µM. Turning to `COCn1c(CN2CCC(c3ccc(C(F)(F)F)cc3)CC2)nc2ccccc21` [compound 287], the EC50 turned out to be 1.9 µM. Regarding `CCOC(=O)CCC(=O)N1CC2(CCN(Cc3nc4ccccc4n3C)CC2)c2cc(Cl)ccc21` [compound 41], the EC50 amounted to 1.63 µM. Turning to `Cc1ccc2c(c1)C1(CCN(Cc3nc4ccccc4n3C)CC1)CN2CCC(C)C` [compound 120], the EC50 worked out at 2.7 µM. `Cn1c(CN2CCC(c3ccc(F)c(Cl)c3)CC2)nc2cc(F)ccc21` [compound 447]: the EC50 came out at 0.0456 µM. On to `COc1cccc(C2CCN(Cc3nc4ccccc4n3C)CC2)c1` [compound 65], for which the concentration giving a half-maximal response (EC50) came to 0.241 µM.

On to `Cn1c(CN2CCC(c3ccccc3F)CC2)nc2cccc(Br)c21` [compound 312], for which the concentration for a half-maximal effect (EC50) was 0.0601 µM.

In the case of `CC(C)Oc1ccccc1C1CCN(Cc2nc3c(F)cccc3n2C)CC1` [compound 393], the EC50 amounted to 1.03 µM. The same measure, in the same setting: then `Cn1c(CN2CCC(c3cccc(F)c3F)CC2)nc2ccccc21` [compound 452], with 0.0202 µM; and `Cc1ccccc1C1CCN(Cc2nc3ccccc3n2C)CC1` [compound 429], with 0.0651 µM; and `Cn1c(CN2CCC(c3ccccc3F)CC2)nc2ccc(Br)cc21` [compound 274], with 0.318 µM. On to `Cn1c(CN2CCC(F)(c3ccc(Cl)cc3)CC2)nc2ccccc21` [compound 432], for which the EC50 was 0.257 µM. In the case of `CCCCN1CC2(CCN(Cc3nc4ccccc4n3C)CC2)c2ccccc21` [compound 132], the EC50 turned out to be 1.34 µM. On to `CCC(C)CN1CC2(CCN(Cc3nc4ccccc4n3C)CC2)c2ccccc21` (centres unmarked) [compound 133], for which the EC50 amounted to 6.16 µM. Same read-out and setting: then `CN1CC2(CCN(Cc3nc4ccccc4n3C)CC2)c2ccccc21` [compound 135], with 2.35 µM; and `Cn1c(CN2CCC3(CC2)CN(CC2CCCO2)c2ccc(F)cc23)nc2ccccc21` (centres unmarked) [compound 117], with greater than 9.01 µM; and `Cn1c(CN2CCC(c3ccc(C(F)(F)F)cc3F)CC2)nc2cc(Cl)ccc21` [compound 384], with 0.493 µM.

As to `CCC(C)CN1CC2(CCN(Cc3nc4ccccc4n3C)CC2)c2cc(C)cc(C)c21` (centres unmarked) [compound 148], the EC50 turned out to be 4.73 µM.

In the case of `Cn1c(CN2CCC(c3ccccc3OCC3CCC3)CC2)nc2ccccc21` [compound 84], the EC50 was found to be 0.744 µM.

Turning to `COc1ccccc1C1CCN(Cc2nc3cc(C)ccc3n2C)CC1` [compound 282], the EC50 came out at 0.0416 µM. For `COc1ccc2nc(CN3CCC(c4ccccc4F)CC3)n(C)c2c1` [Entry 278, 2-((4-(2-fluorophenyl)piperidin-1-yl)methyl)-6-methoxy-1-methyl-1H-benzo[d]imidazole], the EC50 amounted to 0.0466 µM. Same read-out and setting: the same measure for `COc1ccccc1C1(OC)CCN(Cc2nc3ccccc3n2CF)CC1C` (centres unmarked) [compound 334]: greater than 7.08 µM.

Consider `Cn1c(CN2CCC(c3ccccc3F)CC2)nc2ccc(-c3ccccc3)cc21` [Entry 276, 2-((4-(2-Fluorophenyl)piperidin-1-yl)methyl)-1-methyl-6-phenyl-1H-benzo[d]imidazole], for which the EC50 was found to be 0.204 µM. As to `CCOCCCOc1ccccc1C1CCN(Cc2nc3ccccc3n2C)CC1` [compound 91], the EC50 is 1.4 µM. As to `COc1ccc(Cl)cc1C1CCN(Cc2nc3ccccc3n2CCF)CC1` [compound 233], the concentration for a half-maximal effect (EC50) turned out to be 0.264 µM. For `COc1ccccc1C1(OC)CCN(Cc2nc3c(Br)cccc3n2C)CC1C` (centres unmarked) [compound 333], the EC50 stood at 4.76 µM.

Regarding `Cn1c(CN2CCC3(CC2)CN(C(=O)C2CC2)c2ccc(Cl)cc23)nc2ccccc21` [compound 45], the EC50 was determined as 1.12 µM.
